# How the values were obtained:
# Type in all cases: in vivo
# Amaranthus retroflexus [1] = assay: Herbicidal action in the greenhouse (post-emergence treatment)
# Text: (§1) The mixtures according to the invention were applied pre- or post-emergence (foliar treatment). The herbicidal compounds of component B were applied in the formulation in which they are present as commercially available product.
# (§2) Some of the experiments were greenhouse experiments and some were field trials on mini plots (on a site with sandy loam (pH 6.2 to 7.0) or sandy clay (pH 5.0 to 6.7) as the soil).
# (§3) The harmful plants differed with regard to size and developmental state; on average, they were 5 to 20 cm long, depending on the growth habit.
# (§4) The herbicidally active compounds of components A) and B) were applied in succession or jointly, in the latter case in some cases as a tank mix and in some cases as a readymix, in the form of emulsions, aqueous solutions or suspensions, the vehicle being water ([…]). In the case of the field trials, application was effected with the aid of a mobile plot sprayer.
# (§5) The test period extended over 3 to 8 weeks, and the stands were also observed at later points in time.
# (§6) Damage by the herbicidal compositions was evaluated with reference to a scale of 0% to 100% in comparison with untreated control plots. 0 means no damage and 100 means complete destruction of the plants.
# (§7) In these examples, the value E at which only an additive effect of the individual active ingredients is to be expected was calculated by the method of S. R. Colby (Calculating synergistic and antagonistic responses of herbicide combinations, Weeds 15, 20 pp (1967).
# Abutilon theophrasti [2] = assay: as above
# Text: as §1, §2, §3, §4, §5, §6, §7
# Phalaris spec. = assay: Herbicidal action in the field (post-emergence treatment); settings: 2,4-D 500 g/ha a.s.
# Text: as §1, §2, §3, §4, §5, §6, §7
# Richardia brasiliensis = assay: as above; settings: Bentazone 1440 g/ha a.s.
# Text: as §1, §2, §3, §4, §5, §6, §7
# Chenopodium album = assay: as above; settings: Cycloxydim 100 g/ha a.s.
# Text: as §1, §2, §3, §4, §5, §6, §7
# Digitaria sanguinalis [3] = assay: as above; settings: Cycloxydim 100 g/ha a.s.
# Text: as §1, §2, §3, §4, §5, §6, §7
# Veronica ssp. = assay: Herbicidal action in the greenhouse (post-emergence treatment)
# Text: as §1, §2, §3, §4, §5, §6, §7
# Sorghum halepense = assay: Herbicidal action in the field (post-emergence treatment)
# Text: as §1, §2, §3, §4, §5, §6, §7
# Panicum miliaceum = assay: as above; settings: dimethenamid 841 g/ha a.s.
# Text: as §1, §2, §3, §4, §5, §6, §7
# Amaranthus retroflexus [4] = assay: Herbicidal action in the greenhouse (pre-emergence treatment); settings: Dimethenamid 125 g/ha a.s.
# Text: as §1, §2, §3, §4, §5, §6, §7
# Cyperus iria = assay: as above; settings: Dimethenamid 62.5 g/ha a.s.
# Text: as §1, §2, §3, §4, §5, §6, §7
# Digitaria sanguinalis [5] = assay: as above; settings: Dimethenamid 125 g/ha a.s.
# Text: as §1, §2, §3, §4, §5, §6, §7
# Cyperus species = assay: Herbicidal action in the field (post-emergence treatment)
# Text: as §1, §2, §3, §4, §5, §6, §7
# Setaria faberi [6] = assay: as above
# Text: as §1, §2, §3, §4, §5, §6, §7
# Ipomoea ssp. = assay: Herbicidal action in the greenhouse (post-emergence treatment)
# Text: as §1, §2, §3, §4, §5, §6, §7
# Setaria viridis [7] = assay: Herbicidal action in the field (post-emergence treatment); settings: Sethoxydim 160 g/ha a.s.
# Text: as §1, §2, §3, §4, §5, §6, §7
# Abutilon theophrasti [8] = assay: as above
# Text: as §1, §2, §3, §4, §5, §6, §7
# Galium aparine = assay: as above
# Text: as §1, §2, §3, §4, §5, §6, §7
# Sorghum bicolor = assay: as above; settings: atrazine 840 g/ha a.s.
# Text: as §1, §2, §3, §4, §5, §6, §7
# Anthemis mixta = assay: as above; settings: carfentrazone-ethyl 30 g/ha a.s.
# Text: as §1, §2, §3, §4, §5, §6, §7
# [9] = test system: Ipomoea purpurea var. diversifolia; assay: as above
# Text: as §1, §2, §3, §4, §5, §6, §7
# Alopecurus myosuroides [10] = assay: Herbicidal action in the greenhouse (post-emergence treatment)
# Text: as §1, §2, §3, §4, §5, §6, §7
# Alopecurus myosuroides [11] = assay: Herbicidal action in the field (post-emergence treatment); settings: fenoxaprop-ethyl 83 g/ha a.s.
# Text: as §1, §2, §3, §4, §5, §6, §7
# Digitaria adscendens = assay: as above
# Text: as §1, §2, §3, §4, §5, §6, §7
# Setaria faberi [12] = assay: Herbicidal action in the greenhouse (post-emergence treatment); settings: glufosinate-ammonium 31.2 g/ha a.s.
# Text: as §1, §2, §3, §4, §5, §6, §7
# Echinochloa crus-galli = assay: as above
# Text: as §1, §2, §3, §4, §5, §6, §7
# Ipomoea acuminata = assay: Herbicidal action in the field (post-emergence treatment)
# Text: as §1, §2, §3, §4, §5, §6, §7
# Geranium carolinianum = assay: as above; settings: glyphosate 840 g/ha a.s.
# Text: as §1, §2, §3, §4, §5, §6, §7
# Bidens pilosa = assay: as above
# Text: as §1, §2, §3, §4, §5, §6, §7
# Stellaria media = assay: as above
# Text: as §1, §2, §3, §4, §5, §6, §7
# Setaria viridis [13] = assay: Herbicidal action in the greenhouse (post-emergence treatment); settings: isoxaflutole 31.2 g/ha a.s.
# Text: as §1, §2, §3, §4, §5, §6, §7
# Ipomoea lacunosa = assay: Herbicidal action in the field (post-emergence treatment); settings: nicosulfuron 35 g/ha a.s.
# Text: as §1, §2, §3, §4, §5, §6, §7
# Brachiaria plantaginea = assay: as above; settings: pendimethalin 990 g/ha a.s.
# Text: as §1, §2, §3, §4, §5, §6, §7
# [14] = glufosinate-ammonium 400 g/ha a.s.
compound,measurement,setting,value
"O=C(O)COc1ccc(Cl)cc1Cl [2,4-D, reference compound]",Damage,"Amaranthus retroflexus [1]; 2,4-D 62.5 g/ha a.s.",20%
same,Damage,"Abutilon theophrasti [2]; 2,4-D 62.5 g/ha a.s.",40%
same,Damage,Phalaris spec.,20%
"CC(C)N1C(=O)c2ccccc2NS1(=O)=O [Bentazone, bentazone, reference compound]",Damage,Richardia brasiliensis,77%
"CCCC(=NOCC)C1=C(O)CC(C2CCCSC2)CC1=O (stereo not drawn) [Cycloxydim, cycloxydim, reference compound]",Damage,Chenopodium album,0%
same,Damage,Digitaria sanguinalis [3],81%
"COCC(C)N(C(=O)CCl)c1c(C)csc1C (stereo not drawn) [Dimethenamid, dimethenamid, reference compound]",pest or weed control at 500 g/ha,"Amaranthus retroflexus [1]; Amaranthus retroflexus, post-emergence, Dimethenamnid 500 g/ha a.s., read-out: Damage",10%
same,Damage,Veronica ssp.; Dimethenamid 500 g/ha a.s. (Table 43),70%
same,Damage,Veronica ssp.; Dimethenamid 500 g/ha a.s. (Table 45),70%
same,Damage,Sorghum halepense; dimethenamid 1120 g/ha a.s.,7%
same,Damage,Panicum miliaceum,23%
same,Damage,Amaranthus retroflexus [4],80%
same,Damage,Cyperus iria,95%
same,Damage,Digitaria sanguinalis [5],80%
"Cc1cc(Cl)ccc1OCC(=O)O [MCPA, reference compound]",Damage,Cyperus species; MCPA 600 g/ha a.s.,5%
"COc1nc(NC(=O)NS(=O)(=O)c2ccccc2C(F)(F)F)nc(C(F)(F)F)n1 [N-[[[4-methoxy-6-(trifluoromethyl)-1,3,5-triazin-2-yl]amino]carbonyl]-2-(trifluoromethyl)benzenesulfonamide, reference compound]",Damage,Setaria faberi [6]; the benzenesulfonamide (B2) 50 g/ha a.s.,0%
"O=C(O)c1c(Cl)ccc2cc(Cl)cnc12 [Quinclorac, quinclorac, reference compound]",Damage,Ipomoea ssp.; Quinclorac 250 g/ha a.s.,70%
same,Damage,Veronica ssp.; Quinclorac 500 g/ha a.s.,80%
"CCC/C(=N\OCC)C1=C(O)CC(CC(C)SCC)CC1=O (stereo not drawn) [Sethoxydim, sethoxydim, reference compound]",Damage,Setaria viridis [7],93%
same,Damage,Abutilon theophrasti [8]; Sethoxydim 160 g/ha a.s.,0%
"CCOCN(C(=O)CCl)c1c(C)cccc1CC [acetochlor, reference compound]",Damage,Abutilon theophrasti [2]; acetochlor 31.2 g/ha a.s.,0%
"O=C(O)c1cc(Oc2ccc(C(F)(F)F)cc2Cl)ccc1[N+](=O)[O-] [acifluorfen, reference compound]",Damage,Galium aparine; acifluorfen 100 g/ha a.s.,48%
"CCNc1nc(Cl)nc(NC(C)C)n1 [atrazine, reference compound]",Damage,Sorghum bicolor,27%
same,Damage,Setaria faberi [6]; atrazine 1120 g/ha a.s.,20%
same,Damage,Abutilon theophrasti [8]; atrazine 1120 g/ha a.s.,32%
"N#Cc1cc(Br)c(O)c(Br)c1 [bromoxynil, reference compound]",Damage,Galium aparine; bromoxynil 470 g/ha a.s.,84%
"CCOC(=O)C(Cl)Cc1cc(-n2nc(C)n(C(F)F)c2=O)c(F)cc1Cl (stereo not drawn) [carfentrazone-ethyl, reference compound]",pest or weed control at 0.9 g/ha,"Amaranthus retroflexus [1]; Amaranthus retroflexus, post-emergence, read-out: Damage, carfentrazone-ethyl 0.9 g/ha a.s.",60%
same,Damage,Anthemis mixta,0%
"Nc1cnn(-c2ccccc2)c(=O)c1Cl [chloridazon, reference compound]",Damage,[9]; chloridazon 1720 g/ha a.s.,40%
"CCOC(=O)/C(Cl)=C/c1cc(N2C(=O)C3=C(CCCC3)C2=O)ccc1Cl [cinidon-ethyl, reference compound]",Damage,Galium aparine; cinidon-ethyl 7.8 g/ha a.s.,90%
"CN(C)C(=O)Nc1ccc(Cl)c(Cl)c1 [diuron, reference compound]",Damage,Alopecurus myosuroides [10]; diuron 250 g/ha a.s.,80%
"CCOC(=O)C(C)Oc1ccc(Oc2nc3ccc(Cl)cc3o2)cc1 (stereo not drawn) [fenoxaprop-ethyl, reference compound]",pest or weed control at 31.2 g/ha,"Amaranthus retroflexus [1]; Amaranthus retroflexus, post-emergence, fenoxaprop-ethyl (title: fenoxaprop-P-ethyl) 31.2 g/ha a.s., read-out: Damage",0%
same,Damage,Galium aparine; fenoxaprop-ethyl 83 g/ha a.s.,0%
same,Damage,Alopecurus myosuroides [11],82%
"CC(C)N(C(=O)COc1nnc(C(F)(F)F)s1)c1ccc(F)cc1 [flufenacet, reference compound]",Damage,Digitaria adscendens; flufenacet 600 g/ha a.s.,58%
"CP(=O)(O)CCC(N)C(=O)O (stereo not drawn) [glufosinate-ammonium, reference compound]",Damage,Setaria faberi [12],65%
same,Damage,Echinochloa crus-galli; glufosinate-ammonium 15.6 g/ha a.s.,0%
same,Damage,Ipomoea acuminata; [14],75%
same,Damage,Digitaria adscendens; [14],75%
"O=C(O)CNCP(=O)(O)O [glyphosate, reference compound]",Damage,Sorghum halepense; glyphosate 840 g/ha a.s.,74%
same,Damage,Geranium carolinianum,97%
"COC(=O)c1c(Cl)nn(C)c1S(=O)(=O)NC(=O)Nc1nc(OC)cc(OC)n1 [halosulfuron-methyl, reference compound]",pest or weed control at 7.8 g/ha,"Amaranthus retroflexus [1]; Amaranthus retroflexus, post-emergence, read-out: Damage, halosulfuron-methyl 7.8 g/ha a.s.",80%
same,Damage,Alopecurus myosuroides [10]; halosulfuron-methyl 31.2 g/ha a.s.,45%
"CC(C)C1(C)N=C(c2ncccc2C(=O)O)NC1=O (stereo not drawn) [imazapyr, reference compound]",Damage,Ipomoea ssp.; imazapyr 62.5 g/ha a.s.,85%
same,Damage,Alopecurus myosuroides [10]; imazapyr 250 g/ha a.s.,90%
"CC(C)C1(C)N=C(c2nc3ccccc3cc2C(=O)O)NC1=O (stereo not drawn) [imazaquin, reference compound]",Damage,Bidens pilosa; imazaquin 150 g/ha a.s.,45%
"CCc1cnc(C2=NC(C)(C(C)C)C(=O)N2)c(C(=O)O)c1 (stereo not drawn) [imazethapyr, reference compound]",Damage,Ipomoea acuminata; imazethapyr 70 g/ha a.s.,33%
same,Damage,[9]; imazethapyr 70 g/ha a.s.,58%
"CC(C)c1ccc(NC(=O)N(C)C)cc1 [isoproturon, reference compound]",Damage,Stellaria media; isoproturon 1000 g/ha a.s.,94%
"CS(=O)(=O)c1cc(C(F)(F)F)ccc1C(=O)c1cnoc1C1CC1 [isoxaflutole, reference compound]",Damage,Setaria viridis [13],30%
same,Damage,Ipomoea ssp.; isoxaflutole 62.5 g/ha a.s.,55%
"COc1cc(OC)n2nc(S(=O)(=O)Nc3c(Cl)ccc(C)c3Cl)nc2n1 [metosulam, reference compound]",Damage,Veronica ssp.; metosulam 1.9 g/ha a.s.,40%
"CSc1nnc(C(C)(C)C)c(=O)n1N [metribuzin, reference compound]",Damage,Bidens pilosa; metribuzin 200 g/ha a.s.,38%
same,Damage,Cyperus species; metribuzin 200 g/ha a.s.,50%
"COc1cc(OC)nc(NC(=O)NS(=O)(=O)c2ncccc2C(=O)N(C)C)n1 [nicosulfuron, reference compound]",pest or weed control at 1.9 g/ha,"Amaranthus retroflexus [1]; Amaranthus retroflexus, post-emergence, nicosulfuron 1.9 g/ha a.s., read-out: Damage",65%
same,Damage,Ipomoea lacunosa,39%
"CCC(CC)Nc1c([N+](=O)[O-])cc(C)c(C)c1[N+](=O)[O-] [pendimethalin, reference compound]",Damage,Brachiaria plantaginea,0%
"CCCCCCCCSC(=O)Oc1cc(Cl)nnc1-c1ccccc1 [pyridate, reference compound]",Damage,Bidens pilosa; pyridate 450 g/ha a.s.,25%
same,Damage,Setaria faberi [6]; pyridate 450 g/ha a.s.,0%
"COc1cc(OC)nc(Sc2cccc(Cl)c2C(=O)O)n1 [pyrithiobac-sodium, reference compound]",Damage,Echinochloa crus-galli; pyrithiobac-sodium 7.8 g/ha a.s.,10%
"CS(=O)(=O)c1ccc(C(=O)C2C(=O)CCCC2=O)c(Cl)c1 [sulcotrione, reference compound]",pest or weed control at 250 g/ha,"Amaranthus retroflexus [1]; Amaranthus retroflexus, post-emergence, read-out: Damage, sulcotrione 250 g/ha a.s.",45%
same,Damage,Ipomoea acuminata; sulcotrione 300 g/ha a.s.,86%
imazamethabenz [reference compound],Damage,Stellaria media; imazamethabenz 525 g/ha a.s.,0%

# From patent publication US20030203819A1, “Synergistically acting herbicidal mixtures” (priority 1998, published 2003)
